These results are taken from patent publication US10006166B2, “Integrating the production of carboxylated cellulose nanofibrils and cellulose nanocrystals using recyclable organic acids” (The United States of America as Represented by the …, priority 2016, dated 2018).

How the values of this series were obtained:
UV absorption spectrophotometric methods were employed for rapidly determining the soluble acid concentration in the solution. The UV-absorption spectra for oxalic, maleic, and toluenesulfonic acids are shown in FIGS. 3, 4, and 5, respectively.
The solubilities of oxalic, maleic, and toluenesulfonic acids at different temperatures were determined from UV absorption measurements in saturated solutions at different temperatures. The measured solubility data were fit to an exponential function as shown by Eq. (1). The maximum acid concentration that can be used at a given temperature can be determined from the exponential expression.
[formula] Where s0 and B are fitting constants and listed in TABLE 1 for the three acids studied while T is in degree Kelvin.

In the case of `O=C(O)/C=C\C(=O)O` [Maleic acid], the “Fitting constant B for predicting solubility using Eq. (1)” value was 2,461 and the “Fitting constant s0 for predicting solubility using Eq. (1)” value was 3.14 × 10^5.
